Values after ≈ are worked out from the molar mass of the structure shown.
System: M. catarrhalis A894
Experiment: MIC determination by microdilution in cation-adjusted Mueller-Hinton Broth (NCCLS)
Format: cell-based
Details: Moraxella catarrhalis, pH 7.2-7.3
Description: These assays have been performed following the description given in “Methods for dilution Antimicrobial Susceptibility Tests for Bacteria that Grow Aerobically, 4th ed.; Approved standard: NCCLS Document M7-A4; National Committee for Clinical Laboratory Standards: Villanova, Pa., USA, 1997”. Minimal inhibitory concentrations (MICs; mg/l) were determined in cation-adjusted Mueller-Hinton Broth (BBL) by a microdilution method following NCCLS guidelines (National Committee for Clinical Laboratory Standards. Methods for Dilution Antimicrobial Susceptibility). The pH of the test medium was 7.2-7.3. All Example compounds were tested against several Gram-positive and Gram-negative bacteria.

SMILES | MIC
COc1ccc2nccc(NC3CN(C[C@@H]4CN(c5ccc6c(c5)NC(=O)CS6)C(=O)O4)C3)c2c1 [Example 37, 6-{(R)-5-[3-(6-methoxy-quinolin-4-ylamino)-azetidin-1-ylmethyl]-2-oxo-oxazolidin-3-yl}-4H-benzo[1,4]thiazin-3-one] | 0.125 µg/mL (≈ 0.254 µM)
COc1ccc2ncnc(O[C@H]3C[C@@H](Cn4ccnn4)N(C[C@@H]4CN(c5ccc6c(c5)NC(=O)CS6)C(=O)O4)C3)c2c1 [Example 19, 6-{(R)-5-[(2S,4S)-4-(6-methoxy-quinazolin-4-yloxy)-2-[1,2,3]triazol-1-ylmethyl-pyrrolidin-1-ylmethyl]-2-oxo-oxazolidin-3-yl}-4H-benzo[1,4]thiazin-3-one] | 0.063 µg/mL (≈ 0.107 µM)
COc1ccc2ncnc(O[C@H]3C[C@@H](CN)N(C[C@@H]4CN(c5ccc6c(c5)NC(=O)CS6)C(=O)O4)C3)c2c1 [Example 15, 6-{(R)-5-[(2S,4S)-2-aminomethyl-4-(6-methoxy-quinazolin-4-yloxy)-pyrrolidin-1-ylmethyl]-2-oxo-oxazolidin-3-yl}-4H-benzo[1,4]thiazin-3-one] | ≤ 0.031 µg/mL
COc1ccc2nccc(NC3CN(C[C@@H]4CN(c5ccc6c(c5)NC(=O)CO6)C(=O)O4)C3)c2c1 [Example 25, 6-{(R)-5-[3-(6-methoxy-quinolin-4-ylamino)-azetidin-1-ylmethyl]-2-oxo-oxazolidin-3-yl}-4H-benzo[1,4]oxazin-3-one] | ≤ 0.031 µg/mL
COc1ccc2ncnc(O[C@@H]3CN(C[C@@H]4CN(c5ccc6c(c5)NC(=O)CS6)C(=O)O4)C[C@H]3O)c2c1 (relative stereo) [Example 22, 6-{(R)-5-[(3R*,4R*)-3-hydroxy-4-(6-methoxy-quinazolin-4-yloxy)-pyrrolidin-1-ylmethyl]-2-oxo-oxazolidin-3-yl}-4H-benzo[1,4]thiazin-3-one] | ≤ 0.031 µg/mL
COc1ccc2ncnc(OC3CCN(C[C@@H]4CN(c5ccc6c(c5)NC(=O)CO6)C(=O)O4)CC3)c2c1 [Example 31, 6-{(R)-5-[4-(6-methoxy-quinazolin-4-yloxy)-piperidin-1-ylmethyl]-2-oxo-oxazolidin-3-yl}-4H-benzo[1,4]oxazin-3-one] | ≤ 0.031 µg/mL
COc1cnc2cccc(C=C3CCN(C[C@@H]4CN(c5ccc6c(c5)NC(=O)CS6)C(=O)O4)CC3)c2n1 [Example 12, 6-{(R)-5-[4-(3-methoxy-quinoxalin-5-ylmethylene)-piperidin-1-ylmethyl]-2-oxo-oxazolidin-3-yl}-4H-benzo[1,4]thiazin-3-one] | ≤ 0.031 µg/mL
COc1ccc2nccc(NC3CN(C[C@@H]4CN(c5ccc6c(c5)NC(=O)CO6)C(=O)O4)C3)c2n1 [Example 24, 6-{(R)-5-[3-(6-methoxy-[1,5]naphthyridin-4-ylamino)-azetidin-1-ylmethyl]-2-oxo-oxazolidin-3-yl}-4H-benzo[1,4]oxazin-3-one] | ≤ 0.031 µg/mL
COc1ccc2ncnc(O[C@@H]3CN(C[C@@H]4CN(c5ccc6c(c5)NC(=O)CS6)C(=O)O4)C[C@H]3n3ccnn3)c2c1 (relative stereo) [Example 16, 6-{(R)-5-[(3R*,4R*)-3-(6-methoxy-quinazolin-4-yloxy)-4-[1,2,3]triazol-1-yl-pyrrolidin-1-ylmethyl]-2-oxo-oxazolidin-3-yl}-4H-benzo[1,4]thiazin-3-one] | ≤ 0.031 µg/mL
COc1ccc2nccc(NC(=O)C3CN(C[C@@H]4CN(c5ccc6c(c5)NC(=O)CS6)C(=O)O4)C3)c2n1 [Example 7, 1-[(R)-2-oxo-3-(3-oxo-3,4-dihydro-2H-benzo[1,4]thiazin-6-yl)-oxazolidin-5-ylmethyl]-azetidine-3-carboxylic acid (6-methoxy-[1,5]naphthyridin-4-yl)-amide] | ≤ 0.031 µg/mL
COc1ccc2nccc(NC3CCN(C[C@@H]4CN(c5ccc6c(c5)NC(=O)CO6)C(=O)O4)CC3)c2n1 [Example 35, 6-{(R)-5-[4-(6-methoxy-[1,5]naphthyridin-4-ylamino)-piperidin-1-ylmethyl]-2-oxo-oxazolidin-3-yl}-4H-benzo[1,4]oxazin-3-one] | ≤ 0.031 µg/mL
COc1ccc2ncnc(OC3CCN(C[C@@H]4CN(c5ccc6c(c5)NC(=O)CS6)C(=O)O4)CC3)c2c1 [Example 20, 6-{(R)-5-[4-(6-methoxy-quinazolin-4-yloxy)-piperidin-1-ylmethyl]-2-oxo-oxazolidin-3-yl}-4H-benzo[1,4]thiazin-3-one] | ≤ 0.031 µg/mL
COc1cnc2cccc(C(O)C3(O)CCN(C[C@@H]4CN(c5ccc6c(c5)NC(=O)CS6)C(=O)O4)CC3)c2n1 (mixture of isomers) [Example 13, 6-((R)-5-{4-hydroxy-4-[(RS)-hydroxy-(3-methoxy-quinoxalin-5-yl)-methyl]-piperidin-1-ylmethyl}-2-oxo-oxazolidin-3-yl)-4H-benzo[1,4]thiazin-3-one] | 0.5 µg/mL
COc1ccc2ncnc(OCC3CN(C[C@@H]4CN(c5ccc6c(c5)OCCO6)C(=O)O4)C3)c2c1 [Example 30, (R)-3-(2,3-dihydro-benzo[1,4]dioxin-6-yl)-5-[3-(6-methoxy-quinazolin-4-yloxymethyl)-azetidin-1-ylmethyl]-oxazolidin-2-one] | 0.063 µg/mL (≈ 0.132 µM)
COc1ccc2ncnc(O[C@@H]3CN(C[C@@H]4CN(c5ccc6c(c5)NC(=O)CS6)C(=O)O4)C[C@H]3N)c2c1 (relative stereo) [Example 18, 6-{(R)-5-[(3R*,4R*)-3-amino-4-(6-methoxy-quinazolin-4-yloxy)-pyrrolidin-1-ylmethyl]-2-oxo-oxazolidin-3-yl}-4H-benzo[1,4]thiazin-3-one] | ≤ 0.031 µg/mL
COc1ccc2nccc(NC3CN(C[C@@H]4CN(c5ccc6c(c5)OCCO6)C(=O)O4)C3)c2n1 [Example 42, (R)-3-(2,3-dihydro-benzo[1,4]dioxin-6-yl)-5-[3-(6-methoxy-[1,5]naphthyridin-4-ylamino)-azetidin-1-ylmethyl]-oxazolidin-2-one] | ≤ 0.031 µg/mL
COc1ccc2nccc(CCC3CCN(C[C@@H]4CN(c5ccc6c(c5)NC(=O)CS6)C(=O)O4)C3)c2n1 (mixture of isomers) [Example 10, 6-((R)-5-{(RS)-3-[2-(6-methoxy-[1,5]naphthyridin-4-yl)-ethyl]-pyrrolidin-1-ylmethyl}-2-oxo-oxazolidin-3-yl)-4H-benzo[1,4]thiazin-3-one] | ≤ 0.031 µg/mL
N#Cc1ccc2nccc(NC3CN(C[C@@H]4CN(c5ccc6c(c5)NC(=O)CS6)C(=O)O4)C3)c2c1 [Example 38, 4-{1-[(R)-2-oxo-3-(3-oxo-3,4-dihydro-2H-benzo[1,4]thiazin-6-yl)-oxazolidin-5-ylmethyl]-azetidin-3-ylamino}-quinoline-6-carbonitrile] | 0.125 µg/mL (≈ 0.257 µM)
COc1ccc2ncnc(O[C@H]3C[C@@H](CNC(C)=O)N(C[C@@H]4CN(c5ccc6c(c5)NC(=O)CS6)C(=O)O4)C3)c2c1 [Example 17, N-{(2S,4S)-4-(6-methoxy-quinazolin-4-yloxy)-1-[(R)-2-oxo-3-(3-oxo-3,4-dihydro-2H-benzo[1,4]thiazin-6-yl)-oxazolidin-5-ylmethyl]-pyrrolidin-2-ylmethyl}-acetamide] | 0.25 µg/mL (≈ 0.432 µM)
COc1ccc2nccc([C@@H](O)[C@H](O)C3CCN(C[C@@H]4CN(c5ccc6c(c5)NC(=O)CS6)C(=O)O4)C3)c2n1 (mixture of isomers) [Example 11, 6-((R)-5-{(RS)-3-[(1R,2R)-1,2-dihydroxy-2-(6-methoxy-[1,5]naphthyridin-4-yl)-ethyl]-pyrrolidin-1-ylmethyl}-2-oxo-oxazolidin-3-yl)-4H-benzo[1,4]thiazin-3-one] | 0.125 µg/mL
COc1cnc2cccc(CNC3CN(C[C@@H]4CN(c5ccc6c(c5)NC(=O)CO6)C(=O)O4)C3)c2n1 [Example 34, 6-((R)-5-{3-[(3-methoxy-quinoxalin-5-ylmethyl)-amino]-azetidin-1-ylmethyl}-2-oxo-oxazolidin-3-yl)-4H-benzo[1,4]oxazin-3-one] | 0.063 µg/mL (≈ 0.128 µM)
COc1ccc2nccc(OC3CN(C[C@@H]4CN(c5ccc6c(c5)OCCO6)C(=O)O4)C3)c2c1 [Example 44, (R)-3-(2,3-dihydro-benzo[1,4]dioxin-6-yl)-5-[3-(6-methoxy-quinolin-4-yloxy)-azetidin-1-ylmethyl]-oxazolidin-2-one] | 8 µg/mL (≈ 17.3 µM)
